In assay [1] the test system is S-ADH from X. autotrophicus strain Py2. Nature of the assay: Secondary alcohol dehydrogenase NADH oxidation spectrophotometric assay. The format is biochemical, Xanthobacter autotrophicus strain Py2. The following applies: for specific activity, alcohol oxidation: at pH 7.8; for inhibition of S-ADH activity: saturating acetone, alcohol at about 13-fold over the Km value for acetone, data not shown; for Relative S-ADH Activity (%) X. Py2, ketone reduction: ketone reduction rates, pH 6.2, 2.5 mM substrate, 0.2 mM NADH, acetone = 100; for Relative S-ADH Activity (%) X. Py2, alcohol oxidation: alcohol oxidation rates, pH 7.6, 2.5 mM substrate, 0.2 mM NAD+, 2-propanol = 100, NA = no activity detected. The procedure: (§1) Assays were performed in 2 mL quartz cuvettes and contained NAD(H) (0.2 mM), potassium phosphate buffer (25 mM), and a source of enzyme (cell-free extracts, column fractions, or purified enzyme) in a total reaction volume of 1 mL at pH 6.2 ([…]) at 30° C. Assays were pre-incubated for 1.5 min. at 30° C. with all assay components except substrate. Assays were initiated by addition of substrate (2.5 mM) and monitored over time by measuring the change in absorbance at 340 nm (∈340 of 6.22 mM^−1·cm^−1 for NADH).
Data analysis. Kinetic constants (Km and Vmax) were calculated by fitting initial rate data to the Michaelis-Menten equation and using the software KaleidaGraph Fourth Edition, (Synergy Software, Reading, Pa.).

A further assay relates to S-ADH from strain IP-1. The assay is described as follows: S-ADH spectrophotometric assay, partially purified S-ADH of isolate IP-1. The conditions noted are these: for Relative S-ADH Activity (%) IP-1, alcohol oxidation: alcohol oxidation rates, pH 7.6, 2.5 mM substrate, 0.2 mM NAD+, 2-propanol = 100, NA = no activity detected; for Relative S-ADH Activity (%) IP-1, ketone reduction: ketone reduction rates, pH 6.2, 2.5 mM substrate, 0.2 mM NADH, acetone = 100. In kind it is biochemical, isopropanol-grown bacterial strain TDCC IP-1. The procedure:
Protein purifications. […] Secondary alcohol dehydrogenase (S-ADH) from X. autotrophicus Py2 was purified via the following protocol. Cell-free extracts (380 mL) of isopropanol-grown X. autotrophicus Py2 (150 g) were prepared as described above, and applied to a 5×15 cm column of DEAE-Sepharose FAST FLOW (Diethylaminoethyl cross-linked agarose bead material; Catalog number 17-0709-10, Amersham Pharmacia Biotech, Piscataway, N.J.)) equilibrated in buffer A (25 mM MOPS (3-(N-morpholino)propanesulfonic acid), pH 7.6, 5% glycerol, 1 mM dithiothreitol) at a flow rate of 10 mL/min. After loading, the column was washed with […] buffer A and developed with a 2400 mL linear gradient of 90-290 mM KCl in buffer A. Fractions containing S-ADH activity were pooled and dialyzed against 2 L of 25 mM potassium phosphate (pH 6.2) containing 5% glycerol (buffer B) for 16 h at 4° C. […] After washing the column with 30 mL of buffer B, S-ADH was eluted with 20 mL of buffer A containing 10 mM NAD^+. Fractions containing S-ADH were then dialyzed against 2 L of buffer A for 16 h at 4° C., concentrated by ultrafiltration (using a YM30 ultrafiltration membrane; catalog no. 13722, from Millipore, Bedford, Mass.), and frozen in liquid nitrogen. Partially purified S-ADH from bacterial screen cultures was prepared as follows: cell-free extracts from 1 to 5 g of cell paste were prepared as described above and applied to a 5 mL HI TRAP Q column (quaternary, tetraethylammonium, cross-linked agarose bead material for use as an anion exchange matrix; catalog number 17-1153-01, Amersham Pharmacia Biotech) equilibrated in 100 mM MOPS, pH 7.6, containing 5% (v/v) glycerol (buffer C). The column was washed with 10 mL buffer C and developed with a 100 mL linear gradient of 0 to 100 mM NaCl in buffer C. Fractions containing S-ADH activity were pooled, concentrated to 0.5 mL using a 30 kDa MWCO (“molecular weight cut-off”) centrifugal membrane (catalog number UFV4BTK25, Millipore), and stored at −80° C.
as §1

Another assay relates to S-ADH from C. boidinii. Nature of the assay: S-ADH spectrophotometric assay, C. boidinii S-ADH. In kind it is biochemical, Candida boidinii. The following applies: pH 7.6, 5 mM substrate; for Relative S-ADH Activity (%) C. boidinii, alcohol oxidation: alcohol oxidation rates, 0.2 mM NAD+, 2-propanol = 100; for Relative S-ADH Activity (%) C. boidinii, ketone reduction: ketone reduction rates, 0.2 mM NADH, acetone = 100. The protocol: Assays were performed in 2 mL quartz cuvettes and contained NAD(H) (0.2 mM), potassium phosphate buffer (25 mM), and a source of enzyme (cell-free extracts, column fractions, or purified enzyme) in a total reaction volume of 1 mL at pH 6.2 ([…]) at 30° C. Assays were pre-incubated for 1.5 min. at 30° C. with all assay components except substrate. […]

This is an account of results in patent US7794994B2 (Kemeta, LLC, priority 2001, dated 2010).

Usually Km stands for the substrate concentration at which the rate is half of its maximum.

The structures appear in SMILES notation. Values joined by “and” are separate entries in the source; they are usually repeats but may differ in a detail not shown here. Equal entries are not always repeated.

Turning to `CCO` [Ethanol], the “S-ADH activity in the presence of ethanol” value in assay [1] (41 mM ethanol, equivalent to 500 ppm (v/v) gas phase ethanol) is on record as 82-85%. Besides, in assay [1], the “specific activity, alcohol oxidation” value was “No activity” and the “inhibition of S-ADH activity” value is recorded as “no inhibition was observed”. In addition, the “Relative S-ADH Activity (%) IP-1, alcohol oxidation” value with S-ADH from strain IP-1 came to 9%. For the same molecule, the “Relative S-ADH Activity (%) C. boidinii, alcohol oxidation” value with S-ADH from C. boidinii stood at 9%.
Turning to `CCC(C)=O` [2-Butanone], the “Relative S-ADH Activity (%) X. Py2, ketone reduction” value in assay [1] is on record as 170%. In the assay on S-ADH from strain IP-1, the “Relative S-ADH Activity (%) IP-1, ketone reduction” value was 192%. In the assay with S-ADH from C. boidinii, the “Relative S-ADH Activity (%) C. boidinii, ketone reduction” value is 175%.
With `CC(C)O` [2-Propanol], in assay [1], the “Relative S-ADH Activity (%) X. Py2, alcohol oxidation” value is given as 100% and the “specific activity, alcohol oxidation” value is recorded as 24±1.8 μmol alcohol oxidized min^−1mg^−1 protein. Besides, the “Relative S-ADH Activity (%) IP-1, alcohol oxidation” value in the assay with S-ADH from strain IP-1 was 100%. For the same molecule, the “Relative S-ADH Activity (%) C. boidinii, alcohol oxidation” value with S-ADH from C. boidinii is on record as 100%.
In the case of `CCC(C)O` (stereo not drawn) [2-Butanol], in assay [1], the “Relative S-ADH Activity (%) X. Py2, alcohol oxidation” value was found to be 88%; the “specific activity, alcohol oxidation” value was 21±3.6 μmol alcohol oxidized min^−1mg^−1 protein and 37±1.1 μmol alcohol oxidized min^−1mg^−1 protein. For the same molecule, in the assay with S-ADH from strain IP-1, the “Relative S-ADH Activity (%) IP-1, alcohol oxidation” value is on record as 147%. Moreover, the “Relative S-ADH Activity (%) C. boidinii, alcohol oxidation” value with S-ADH from C. boidinii is given as 100%.
Turning to `CCCO` [1-Propanol], in assay [1], the “specific activity, alcohol oxidation” value was “No activity” and the “inhibition of S-ADH activity” value is reported as “no inhibition was observed”. Besides, in the assay with S-ADH from strain IP-1, the “Relative S-ADH Activity (%) IP-1, alcohol oxidation” value is 2%. For the same molecule, the “Relative S-ADH Activity (%) C. boidinii, alcohol oxidation” value with S-ADH from C. boidinii worked out at 9%.
Consider `CC(C)=O` [Acetone, acetone], for which, in assay [1], the “Relative S-ADH Activity (%) X. Py2, ketone reduction” value stood at 100%. Besides, the Km in assay [1] (reduction of acetone to isopropanol, NADH at fixed saturating concentration, read-out: apparent Km) is ~144 µM and 144 µM. The “Relative S-ADH Activity (%) IP-1, ketone reduction” value in the assay on S-ADH from strain IP-1 amounted to 100%. Besides, in the assay on S-ADH from C. boidinii, the “Relative S-ADH Activity (%) C. boidinii, ketone reduction” value is 100%.
